Among the test systems are U251 CNS; UO-31 renal; KM12 colon; TK-10 renal; OVCAR-5 ovarian; SR leukemia; RXF 393 renal; HCT-116 colon; OVCAR-8 ovarian; A549 NSCLC.
Holding throughout (assay): DTP human tumour cell line panel, 48 h

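Cells were grown in 96-well plates and exposed to each compound for 48 hours at five concentrations; endpoints were interpolated linearly between bracketing concentrations, or set to the highest concentration if not reached. GI50: concentration for 50% inhibition of growth. TGI is the concentration that stops growth completely.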 Where only a bound is given, the exact number is not on record here.

For orientation: TGI means the concentration at which net growth stops. `COc1cc2c(NCCCCCCO[N+](=O)[O-])ncnc2c(OC)c1OC`: the TGI in the assay with U251 CNS was above 100 µM; in the assay with UO-31 renal it was 21.2 µM; with KM12 colon, 33.5 µM; in the assay on TK-10 renal, 49.4 µM; with OVCAR-5 ovarian it was above 92.7 µM; in the assay on SR leukemia it was 45.1 µM. In addition, the TGI in the assay with RXF 393 renal is 75.2 µM; in the assay with HCT-116 colon, 62.5 µM; with OVCAR-8 ovarian, 64.4 µM; with A549 NSCLC, above 95.7 µM.

Regarding `Cc1nc2nnc(C)n2c2c1C(=O)Nc1ccccc1N2`, the TGI in the assay on U251 CNS, with UO-31 renal, in the assay with KM12 colon, in the assay on TK-10 renal, in the assay with SR leukemia and in the assay on RXF 393 renal was above 100 µM each time. In addition, the TGI with HCT-116 colon, with OVCAR-8 ovarian and with A549 NSCLC was above 100 µM throughout.

In general, GI50 refers to the concentration that inhibits growth by half. With `Clc1cccc(NC=Nc2ccc(-c3nc4ccccc4s3)cc2)c1`, the GI50 is 7.85 µM in the assay on U251 CNS; 13.8 µM with UO-31 renal; 13.7 µM in the assay on KM12 colon; 21 µM in the assay on TK-10 renal; 23.6 µM in the assay with OVCAR-5 ovarian; 9.55 µM in the assay on SR leukemia. The GI50 in the assay with HCT-116 colon was 11 µM; with OVCAR-8 ovarian it was 13.1 µM; in the assay with A549 NSCLC, 9.11 µM. For the same molecule, the TGI with U251 CNS is 15.4 µM; in the assay on UO-31 renal, 33.6 µM; in the assay on KM12 colon, 38.3 µM; in the assay with TK-10 renal, above 50 µM; with OVCAR-5 ovarian, above 50 µM; in the assay with SR leukemia it was 21.1 µM. Further, the results for the TGI with HCT-116 colon, with OVCAR-8 ovarian and with A549 NSCLC were 24.1 µM, 30.6 µM and 20.4 µM, respectively.

For the molecule `C#CC(C)(C)Oc1cc(O)c2c(=O)c3ccccc3n(C)c2c1`, the TGI in the assay with U251 CNS is above 100 µM; in the assay with UO-31 renal, above 100 µM; in the assay on TK-10 renal, above 100 µM; in the assay with OVCAR-5 ovarian, above 100 µM; in the assay with SR leukemia it was 35.7 µM; with RXF 393 renal it was above 100 µM. Moreover, the TGI in the assay on HCT-116 colon, in the assay with OVCAR-8 ovarian and with A549 NSCLC was above 100 µM in each case.

Turning to `CCOC(=O)CCCO`, the TGI in the assay on U251 CNS, in the assay on UO-31 renal, with KM12 colon, in the assay with TK-10 renal, with OVCAR-5 ovarian and with SR leukemia was above 100 µM each time. Further, the TGI in the assay on RXF 393 renal, in the assay with OVCAR-8 ovarian and with A549 NSCLC was above 100 µM each time.

As to `COc1cc2c(c(OC)c1OC)-c1ccc(NCc3ccccc3)c(=O)cc1[C@@H](NC(C)=O)CC2`, the GI50 is 0.368 µM in the assay with U251 CNS; 4.99 µM with UO-31 renal; 0.374 µM in the assay on KM12 colon; 4.82 µM in the assay on TK-10 renal; 0.723 µM in the assay on OVCAR-5 ovarian; 0.436 µM in the assay with SR leukemia. Moreover, the figures for the GI50 in the assay on HCT-116 colon, in the assay on OVCAR-8 ovarian and in the assay with A549 NSCLC were 0.419 µM, 0.444 µM and 0.453 µM, respectively. Also, the TGI in the assay on U251 CNS is 11.8 µM; in the assay with UO-31 renal it was 44.9 µM; in the assay with KM12 colon it was 19.9 µM; with TK-10 renal, above 100 µM; with OVCAR-5 ovarian, above 100 µM; in the assay with SR leukemia, above 44.3 µM. The TGI in the assay on HCT-116 colon was above 100 µM; in the assay with OVCAR-8 ovarian, 65 µM; with A549 NSCLC it was above 100 µM.

In the case of `NC1(CCCCCCCCCCC(=O)O)CNCCNCCNCCNC1`, the TGI in the assay with UO-31 renal is above 100 µM; in the assay on KM12 colon it was above 100 µM; in the assay on TK-10 renal it was above 100 µM; with OVCAR-5 ovarian it was 45.6 µM; in the assay on SR leukemia, 67.2 µM; with RXF 393 renal, above 100 µM. In addition, the TGI is 81.2 µM in the assay on HCT-116 colon, above 100 µM in the assay on OVCAR-8 ovarian and above 100 µM in the assay on A549 NSCLC.

Regarding `Fc1ccc(-c2nn(-c3ccccc3)cc2-c2nc3ccccc3o2)cc1`, the GI50 in the assay on U251 CNS was 1.93 µM; in the assay on UO-31 renal, 1.67 µM; in the assay with KM12 colon, 3.25 µM; with OVCAR-5 ovarian it was 20.1 µM; with SR leukemia, 3.71 µM; with RXF 393 renal, 31.6 µM. For the same molecule, the GI50 in the assay on HCT-116 colon is 2.5 µM; with OVCAR-8 ovarian it was 3.61 µM; in the assay on A549 NSCLC, 3.46 µM. For the same molecule, the TGI was 16.5 µM in the assay on U251 CNS; 35.1 µM in the assay on UO-31 renal; above 100 µM with KM12 colon; 77.2 µM in the assay with OVCAR-5 ovarian; above 100 µM in the assay on SR leukemia; above 100 µM with RXF 393 renal. In addition, the concentration for total growth inhibition (TGI) is 20.7 µM in the assay with HCT-116 colon, above 100 µM with OVCAR-8 ovarian and 16.4 µM in the assay with A549 NSCLC.

For `COc1cc2c(cc1O)[C@H](Cc1ccc(Oc3cc(C[C@H]4c5cc(OC)c(OC)cc5CCN4C)ccc3OC)cc1)NCC2`, the TGI was 24.3 µM in the assay on U251 CNS; 21.2 µM with UO-31 renal; 25.7 µM in the assay with KM12 colon; 35 µM in the assay with OVCAR-5 ovarian; 30.1 µM with SR leukemia; 18.3 µM with RXF 393 renal. In addition, the TGI turned out to be 20.9 µM in the assay with HCT-116 colon, 27.8 µM in the assay with OVCAR-8 ovarian and 32.8 µM with A549 NSCLC.

For `COc1nc2c(cc1S(=O)(=O)c1ccccc1)CCc1c-2cnn1-c1ccccc1Cl`, the GI50 in the assay with U251 CNS is 5.94 µM; with UO-31 renal it was 3.13 µM; with KM12 colon, 4.49 µM; in the assay on OVCAR-5 ovarian it was above 100 µM; in the assay with SR leukemia it was 5.01 µM; in the assay on RXF 393 renal, 6.74 µM. The GI50 with HCT-116 colon is 5.31 µM; in the assay with OVCAR-8 ovarian, 8.7 µM; with A549 NSCLC, 4.97 µM. In addition, the TGI in the assay with U251 CNS, in the assay on UO-31 renal, with KM12 colon, in the assay on OVCAR-5 ovarian, in the assay with SR leukemia and in the assay with RXF 393 renal was above 100 µM in each case. Also, the TGI in the assay on HCT-116 colon, with OVCAR-8 ovarian and in the assay on A549 NSCLC was above 100 µM each time.

For `CCOc1ccc2nc(NC(=O)/C(CC(=O)CC(C3=C(O)c4ccccc4CC3=O)c3ccccc3)=N\O)sc2c1` (stereo unspecified), the TGI in the assay on U251 CNS, in the assay with UO-31 renal, in the assay on KM12 colon, in the assay on OVCAR-5 ovarian, in the assay with SR leukemia and in the assay on RXF 393 renal was above 100 µM in each case. Moreover, the TGI in the assay with HCT-116 colon, in the assay on OVCAR-8 ovarian and in the assay on A549 NSCLC was above 100 µM in each case.

The values above are taken from PubChem BioAssay (NCI).
